In assay [1] the test system is six B. braunii SMT-like genes (TMT-1, -2, -3, SMT-1, -2, -3). Briefly: In vitro methyltransferase assay with sterol acceptor substrates. It is filed as biochemical, Botryococcus braunii race B. Conditions: 2 mM acceptor substrate, yeast microsomes, data not shown. As to the method: (§1) The various B. braunii SMT-like genes or empty vector control were expressed in TN-7 yeast and grown in 100 ml selection media for 3 days, after which microsomes were prepared according to the methods of Pompon et al. (27). Enzyme assays contained 50 mM HEPES, pH 7.5, either 0.01% (TMT-3) or 0.1% (all other samples) DHPC, 2 mM acceptor substrate (botryococcene, squalene, C32-botryococcene, C32-squalene, cycloartenol, zymosterol, or lanosterol), 50 μM 3H-SAM (˜150 dpm/pmole), 2 μl microsomes, in 100 μl total volume. Assays were set up by first combining everything except 3H-SAM and microsomes and treating with a sonicating water bath (Branson 2510) for ˜1 min. until the solution became cloudy due to micelle formation, after which 3H-SAM and microsomes were added and the reaction incubated at 37° C. for 5 min. Reactions were stopped by adding an equal volume of 10% (w/v) KOH in methanol, followed by extraction of hydrocarbon products with 400 μl n-hexane. An aliquot of the organic phase was spotted on silica TLC plates and developed with n-hexane:MTBE (25:1). Triterpenes were visualized with iodine vapor and the corresponding zones were scraped and subject to scintillation analysis.
None of the six enzymes was able to methylate C32 botryococcene or C32 squalene, possible intermediates to the tetramethylated forms (see below).

Assay [2] has as its target T1, TMT-1 (Botryococcus braunii, UniProt H2E7T5).
T1 sequence (H2E7T5 1-378): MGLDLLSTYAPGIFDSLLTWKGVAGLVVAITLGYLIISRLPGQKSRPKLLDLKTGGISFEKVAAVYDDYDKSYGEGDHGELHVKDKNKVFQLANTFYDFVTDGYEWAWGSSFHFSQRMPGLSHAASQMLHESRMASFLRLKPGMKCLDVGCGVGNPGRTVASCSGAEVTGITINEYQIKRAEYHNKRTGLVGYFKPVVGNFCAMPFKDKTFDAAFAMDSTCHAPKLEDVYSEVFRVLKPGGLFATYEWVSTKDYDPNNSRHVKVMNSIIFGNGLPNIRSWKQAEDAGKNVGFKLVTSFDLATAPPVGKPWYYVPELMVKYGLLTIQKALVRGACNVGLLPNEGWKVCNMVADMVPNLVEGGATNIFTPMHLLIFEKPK
Briefly: In vitro methyltransferase assay, yeast microsomes, 3H-SAM. It is filed as biochemical, Botryococcus braunii race B. Set-up: led to the identification of six full-length ORFs; made in house; host or cells: Saccharomyces cerevisiae TN7 (TN-7), microsomal preparation. The settings on record: TMT-1 microsomes; 2 mM acceptor substrate, 50 μM 3H-SAM, 0.1% DHPC, 37° C., 5 min; mean ± S.E.M., n = 3. As to the method: as §1, with “analysis. […]” for “analysis.”

For assay [3], the target named is T2, TMT-2 (Botryococcus braunii, UniProt H2E7T6).
T2 sequence (H2E7T6 1-378): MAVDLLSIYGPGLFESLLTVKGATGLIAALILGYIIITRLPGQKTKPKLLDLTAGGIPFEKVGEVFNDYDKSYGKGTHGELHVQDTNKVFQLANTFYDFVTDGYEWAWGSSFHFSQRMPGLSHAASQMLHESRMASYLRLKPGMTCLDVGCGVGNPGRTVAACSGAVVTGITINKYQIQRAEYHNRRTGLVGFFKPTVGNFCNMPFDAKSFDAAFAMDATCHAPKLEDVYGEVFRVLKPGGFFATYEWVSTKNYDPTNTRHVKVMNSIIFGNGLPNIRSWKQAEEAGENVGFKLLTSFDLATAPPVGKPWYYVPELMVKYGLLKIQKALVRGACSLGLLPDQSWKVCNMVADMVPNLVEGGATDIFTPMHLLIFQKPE
The description is as above. The arrangement: led to the identification of six full-length ORFs; made in house; host or cells: Saccharomyces cerevisiae TN7 (TN-7), microsomal preparation. The settings on record: TMT-2 microsomes; 2 mM acceptor substrate, 50 μM 3H-SAM, 0.1% DHPC, 37° C., 5 min; mean ± S.E.M., n = 3. It is filed as biochemical, Botryococcus braunii race B. As to the method: as §1, with “analysis. […]” for “analysis.”

Another assay addresses T3, SMT-3 (Botryococcus braunii, UniProt H2E7U0).
T3 construct: led to the identification of six full-length ORFs; made in house; host or cells: Saccharomyces cerevisiae TN7 (TN-7), microsomal preparation
T3 sequence (H2E7U0 1-392): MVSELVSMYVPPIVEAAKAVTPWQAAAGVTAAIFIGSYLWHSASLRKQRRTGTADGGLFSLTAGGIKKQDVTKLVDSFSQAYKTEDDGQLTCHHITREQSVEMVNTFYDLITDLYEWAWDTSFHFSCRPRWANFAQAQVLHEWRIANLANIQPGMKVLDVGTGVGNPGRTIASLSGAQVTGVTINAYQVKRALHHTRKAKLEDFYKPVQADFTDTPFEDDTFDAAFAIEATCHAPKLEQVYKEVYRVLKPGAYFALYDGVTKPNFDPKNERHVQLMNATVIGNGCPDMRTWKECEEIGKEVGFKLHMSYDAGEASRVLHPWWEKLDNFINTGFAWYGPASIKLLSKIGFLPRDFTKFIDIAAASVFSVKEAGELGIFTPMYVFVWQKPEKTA
Described as above. It is filed as biochemical, Botryococcus braunii race B. Conditions: SMT-3 microsomes; 2 mM acceptor substrate, 50 μM 3H-SAM, 0.1% DHPC, 37° C., 5 min. As to the method: as §1
(§2) To verify the in vivo results with in vitro determinations, the six SMT-like genes were expressed in yeast and microsomal preparations used as the source of the enzymes in assays containing 3H-SAM and either botryococcene or squalene as substrates.

For a further assay, the target named is T4, SMT-2 (Botryococcus braunii, UniProt H2E7T9).
T4 construct: led to the identification of six full-length ORFs; made in house; host or cells: Saccharomyces cerevisiae TN7 (TN-7), microsomal preparation
T4 sequence (H2E7T9 1-389): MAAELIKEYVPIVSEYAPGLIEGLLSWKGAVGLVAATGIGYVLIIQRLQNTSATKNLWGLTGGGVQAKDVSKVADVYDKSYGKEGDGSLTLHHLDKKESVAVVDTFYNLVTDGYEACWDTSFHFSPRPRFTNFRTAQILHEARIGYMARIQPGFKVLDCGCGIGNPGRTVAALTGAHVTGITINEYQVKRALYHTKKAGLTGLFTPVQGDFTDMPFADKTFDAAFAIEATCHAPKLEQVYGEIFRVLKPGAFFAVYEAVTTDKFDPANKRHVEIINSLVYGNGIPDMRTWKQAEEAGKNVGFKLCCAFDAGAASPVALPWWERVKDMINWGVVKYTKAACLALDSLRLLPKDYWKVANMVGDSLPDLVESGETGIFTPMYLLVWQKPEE
The assay is described as above. Conditions: SMT-2 microsomes; 2 mM acceptor substrate, 50 μM 3H-SAM, 0.1% DHPC, 37° C., 5 min. It is filed as biochemical, Botryococcus braunii race B. The method, then:
as §1, §2

A further assay addresses T5, SMT-1 (Botryococcus braunii, UniProt H2E7T8).
T5 construct: led to the identification of six full-length ORFs; made in house; host or cells: Saccharomyces cerevisiae TN7 (TN-7), microsomal preparation
T5 sequence (H2E7T8 1-389): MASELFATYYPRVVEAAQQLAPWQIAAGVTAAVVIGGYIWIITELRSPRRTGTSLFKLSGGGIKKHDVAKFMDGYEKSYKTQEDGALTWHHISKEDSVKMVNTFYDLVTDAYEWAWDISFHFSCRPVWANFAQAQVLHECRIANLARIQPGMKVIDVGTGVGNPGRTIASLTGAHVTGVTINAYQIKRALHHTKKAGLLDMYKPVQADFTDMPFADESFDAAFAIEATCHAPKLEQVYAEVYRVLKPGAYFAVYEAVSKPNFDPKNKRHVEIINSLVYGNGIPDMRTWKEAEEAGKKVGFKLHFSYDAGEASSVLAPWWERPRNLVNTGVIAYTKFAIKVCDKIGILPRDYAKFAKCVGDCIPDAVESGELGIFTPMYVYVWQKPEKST
The assay is described as above. It is filed as biochemical, Botryococcus braunii race B. Conditions: SMT-1 microsomes; 2 mM acceptor substrate, 50 μM 3H-SAM, 0.1% DHPC, 37° C., 5 min. As to the method: as §1, §2

Assay [4] addresses T6, TMT-3 (Botryococcus braunii, UniProt H2E7T7).
T6 construct: led to the identification of six full-length ORFs; expressed in transfected cells; host or cells: Saccharomyces cerevisiae TN7 (erg9 insertional mutant) co-expressing B. braunii squalene synthase (BSS) or SSL-1-3m
T6 sequence (H2E7T7 1-379): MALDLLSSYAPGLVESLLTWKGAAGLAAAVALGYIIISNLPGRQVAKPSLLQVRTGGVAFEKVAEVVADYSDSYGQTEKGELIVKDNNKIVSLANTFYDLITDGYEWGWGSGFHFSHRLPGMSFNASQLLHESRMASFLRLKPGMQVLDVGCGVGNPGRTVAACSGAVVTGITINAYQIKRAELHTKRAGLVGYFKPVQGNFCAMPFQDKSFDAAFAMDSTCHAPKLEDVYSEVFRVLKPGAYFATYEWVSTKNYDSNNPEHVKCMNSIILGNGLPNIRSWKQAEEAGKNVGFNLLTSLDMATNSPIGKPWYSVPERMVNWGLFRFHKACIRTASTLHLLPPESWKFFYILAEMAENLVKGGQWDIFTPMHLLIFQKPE
The description is as above. Conditions: TMT-3 microsomes; 2 mM acceptor substrate, 50 μM 3H-SAM, 0.01% DHPC, 37° C., 5 min; mean ± S.E.M., n = 3. It is filed as biochemical, Botryococcus braunii race B. The method, then: as §1, §2

The target of assay [5] is T1, TMT-1. Briefly: In vivo co-expression in TN7 yeast with triterpene synthase, GC-MS of organic extracts. The arrangement: led to the identification of six full-length ORFs; made in house; host or cells: Saccharomyces cerevisiae TN7 (TN-7). The settings on record: TN7 yeast co-expressing TMT-1 and BSS. It is filed as cell-based, Botryococcus braunii race B. The text has this:
(§3) Yeast lines previously developed for high level accumulation of squalene and botryococcene were used for evaluating the putative triterpene methyltransferase genes (17,23,24). These lines consist of the TN7 parental strain harboring an insertional mutation in the native yeast squalene synthase gene (ERG9) transformed with expression vectors containing either the full-length Botryococcus squalene synthase (BSS) gene (18) or a fusion of the Botryococcus SSL-1 and SSL-3 genes (functional equivalent of botryococcene synthase) including a sequence encoding for the carboxy-terminal membrane targeting domain of the Botryococcus squalene synthase protein (SSL-1-3m) (17). The various methyltransferase expression vectors were introduced into these two yeast lines using the lithium acetate transformation protocol, followed by selection for complementation of the uracil and leucine auxotrophic growth markers (24). […]
(§4) In brief, 1 ml aliquots of the culture were combined with 1 ml of acetone, mixed vigorously, and incubated at room temperature for 10 min. […] The mixture was then centrifuged briefly at 500 g to separate the phases, and an aliquot of the organic phase (1-3 μl) analyzed by GC-MS with a Varian CP-3800 GC coupled to a Varian Saturn 2200 MS/MS (Varian Medical Systems) using a Supelco SLB-5 ms fused silica capillary column (30 m×0.25 mm×0.25 μm film thickness, Supelco). […]

Assay [6] concerns the target T2, TMT-2. The description is as above. The settings on record: TN7 yeast co-expressing TMT-2 and BSS. The arrangement: led to the identification of six full-length ORFs; made in house; host or cells: Saccharomyces cerevisiae TN7 (TN-7). It is filed as cell-based, Botryococcus braunii race B.
Source text: as §3, §4

Assay [7] deals with T6, TMT-3. Described as above. It is filed as cell-based, Botryococcus braunii race B. Conditions: TN7 yeast co-expressing TMT-3 and BSS.
Source text: as §3, §4

Four molecules from patent publication US9487762B1, “Method and system for producing triterpenes” (University of Kentucky Research Foundation, priority 2012, dated 2016) can be followed below.

On to `CC(C)=CCC[C@@H](C)[C@H]1CC[C@@]2(C)C3=C(CC[C@]12C)[C@@]1(C)CC[C@H](O)C(C)(C)[C@@H]1CC3` [lanosterol], for which, in [1], the “Methylation of the sterol acceptor substrate” value (from here on “Methylation”) is given as “none of the six B. braunii SMT-like genes methylated”.

In the case of `CC(C)=CCC/C(C)=C/CC/C(C)=C/CC/C=C(\C)CC/C=C(\C)CCC=C(C)C` [squalene], the “Enzyme activity (methyl groups transferred to acceptor substrate)” value was found to be 513.7 ± 8.6 pmol/h/µg at TMT-1 [2]; 862.2 ± 59.9 pmol/h/µg at TMT-2 [3]; 0 pmol/h/µg at SMT-3; 0 pmol/h/µg on SMT-2; 0 pmol/h/µg at SMT-1; 35.4 ± 3.0 pmol/h/µg on TMT-3 [4]. Besides, the “Share of total squalenes accumulated as methyl-derivatives” value on TMT-1 [5] was found to be 63%. Moreover, the “Share of squalenes accumulated as methyl-derivatives” value on TMT-2 [6] is given as 40%. Further, the “Share of total accumulating squalene converted to its methyl-derivatives” value on TMT-3 [7] was “approximately 18%”.

Take `CC(C)=CCC[C@@H](C)[C@H]1CC[C@H]2C3=C(CC[C@]12C)[C@@]1(C)CC[C@H](O)C[C@@H]1CC3` [zymosterol]: the “Methylation” value in [1] was “none of the six B. braunii SMT-like genes methylated”.

Consider `CC(C)=CCC[C@@H](C)[C@H]1CC[C@@]2(C)[C@@H]3CC[C@H]4C(C)(C)[C@@H](O)CC[C@@]45C[C@@]35CC[C@]12C` [cycloartenol], for which the “Methylation” value in assay [1] is given as “none of the six B. braunii SMT-like genes methylated”.
